# In US11633370B2, “Use of scavengers of reactive gamma-ketoaldehydes to extend cell lifespan and healthspan” (Vanderbilt University, priority 2016, dated 2023):
# Assays:
# [1] = test system: N2 WT C. elegans; assay: Longevity assay, wild-type N2 worms; type: in vivo; details: for increase in median lifespan: continuous from Day 1 of adulthood until natural death, versus 16 days; for median lifespan: control 16 days
# Description: C. elegans strains were cultured at 20° C. on standard nematode growth media (NGM) agar plates seeded with Escherichia coli strain NA22. The following strains were used in this work: wild-type C. elegans Bristol strain (N2), sir-2.1(ok434) IV, F19F10.5(ok888) V, and daf-16(mu86). Strains were obtained from the Caenorhabditis Genetics Center (University of Minnesota, St. Paul, Minn.). For generating cultures of 15-day-old (Day 15) adult worms, synchronized late-stage L4s/early young adult worms were transferred to peptone enriched 15 cm plates containing UV-irradiated OP50 E. coli and 0.12 mM 5-fluoro-2′-deoxyuridine (FUDR) to inhibit progeny production[88] with or without drug until harvest.
# Nematodes grown on NGM-agar plates containing 0.5% peptone, were harvested, and eggs were isolated by alkaline hypochlorite with 0.5 N NaOH, 1% hypochlorite; 8 min at 23° C. The recovered eggs were rinsed in M9 buffer and placed on fresh agar plates seeded with E. coli strain OP50 and maintained at 20° C. until late-L4/young adult stage. After the late L4/young adult molt, worms were transferred to peptone enriched 15 cm plates containing 0.12 mM FUDR, OP50 E. coli, and varying concentrations of SA. Salicylamine drug plates were made fresh before transfer by spreading SA on top of the agar and plates were allowed to dry. E. coli strain OP50 was exposed to UV radiation for 30 minutes to kill the bacteria before seeding onto the SA-FUDR NGM agar plates. Worms were exposed to SA throughout its life until harvest by transferring worms to fresh SA-FUDR-OP50 NGM plates every other day.
# Survival cultures were grown on 60-mm agar plates; after the late-stage L4/young adult molt, approximately 100 adults were transferred onto SA-OP50-seeded NGM plates. Salicylamine drug plates were made fresh before transfer by spreading SA on top of the agar. Plates were allowed to dry before seeding with UV-irradiated OP50 bacteria. Worms were maintained at 20° C. and live worms were counted during transfer to freshly made SA-OP50-NGM agar plates every 2-3 days. Survival was scored as movement upon slight touch with the platinum wire. Worms were maintained until death.
# [2] = test system: N2 WT C. elegans; assay: Pharyngeal pumping rate, N2; type: in vivo; details: increasing concentrations of SA, measured every fifth day; p<0.05
# From the text: To quantify this, the present inventors chose both a biochemical endpoint (lipofuscin autofluorescence) and a behavioral measure (pharyngeal pumping) that change predictably with aging and are associated with healthspan. The accumulation in the nematode intestinal epithelium of autofluorescent lipofuscin granules, a heterogeneous mixture of oxidized and crosslinked lipids and proteins and advanced glycation end products, is a known conserved phenomenon observed to increase with age. Visualization of lipofuscin granules is often used as an age-related assessment of healthspan. Lipofuscin autofluorescence were quantified over time (every 5 days) in N2 adult nematodes (10-20 per colony) in the presence of increasing doses of SA. […] For a behavioral/functional measurement of health, pharyngeal pumping rates were quantified. […] Pharyngeal pumping rates quantified in WT N2 worms established on OP50-seeded NGM agar plates with increasing concentrations of SA. The frequency of pharyngeal pumping was measured and recorded every fifth day as the animals aged.
# C. elegans pharyngeal pumping rate assays were performed on 60-mm agar plates with bacterial lawns at room temperature. […] The number of contractions in the terminal bulb of the pharynx was counted for 20 s and then plotted.
# [3] = test system: N2 WT C. elegans; assay: IsoK-lysyl-lactam protein adduct quantification by LC/MS/MS; type: in vivo; details: increasing concentrations of SA until day 15, versus vehicle control; p<0.01
# From the text: The mechanism by which IsoKs inactivate protein targets involves covalent adduction of the epsilon amine group on the side chains of lysine residues within target proteins (FIG. 2A). The initial product of this covalent adduction is a lactam ring structure composed of the lysyl side chain and the isoketal. SA's amine group is much more reactive toward IsoKs and preserves protein function by more rapidly forming an adduct with the IsoK, preventing the adduction of lysyl side chains. If this mechanism is operative in vivo when C. elegans are treated with SA, a dose-dependent reduction in IsoK-lysyl-lactam adducts should be observed. To test this directly, WT N2 worms were treated with vehicle or increasing concentrations of SA until day 15, then collected for IsoK-lysyl-lactam adduct quantification by liquid chromatography tandem mass spectrometry (LC/MS/MS) using a heavy isotope-labeled internal standard for quantification.
# Worms grown on FUDR containing SA-OP50-seeded NGM plates were collected at Day 15 adult stage by washing in M9 medium, followed by an ice-cold 60% w/v sucrose gradient to segregate clean bacteria-free adult worms from bacterial debris. Clean worms were transferred to Eppendorf tubes and flash-frozen in liquid nitrogen and thawed at 37° C. 3×. […] Levels of IsoK-lysyl-lactam adduct was measured as previously described. […]
# [4] = test system: mice; details: administering SA in mice; cited from earlier work
smiles,measurement,setting,value
"NCc1ccccc1O [SA, salicylamine]",increase in median lifespan,[1]; 50 μM SA,18%
same,median lifespan,[1]; 50 μM SA,19 days
same,increase in median lifespan,"[1]; 100 μM SA, p<0.05",32%
same,median lifespan,[1]; 100 μM SA,21 days
same,increase in median lifespan,"[1]; 500 μM SA, p<0.01",56%
same,median lifespan,[1]; 500 μM SA,25 days
same,age-associated decline in pharyngeal pumping rate,[2],dose-dependent protection
same,IsoK-lysyl-lactam adduct levels,[3],"significant, dose-dependent reduction"
same,development of angiotensin II-induce hypertension,[4],prevents
